Assay results taken from patent publication US7994133B2, “Isozyme-specific antagonists of protein kinase C” (The Board of Trustees of the Leland Stanford Junior …, priority 2003, dated 2011).

Tests used:
Type in all cases: cell-based
[1] = system: neonatal rat cardiac myocytes; experiment: Cardiac myocyte contraction rate measurement; conditions: for effect on ΨεRACK effect on contraction (negative chronotropy): PMA and ΨεRACK, prior application of the inhibitor; for agonistic effect on contraction rate of cardiac myocytes: prior to PMA; for effect on the decrease in contraction rate induced by PMA: 1 nM or 5 nM PMA about 20 minutes after peptide
Description: Primary cardiac myocyte cell cultures (90-95% pure) were prepared from newborn rats as previously described (Gray, M. O., et al., J. Biol. Chem. 272:30945-30951, (1997); Disatnik, M.-H., et al., Exp. Cell Res. 210:287-297, (1994)). Peptides (100 nM-1 μM applied concentration) were introduced into cells by transient permeabilization (Johnson, J. A., et al., Circ. Res. 79:1086-1099, (1996)) with sham permeabilization as control, or as carrier-peptide conjugates (30 nM-1 μM) (Derossi, D. et al., surpa (1994); Derossi, D. et al., surpa (1996); Théodore, L., et al., surpa (1995)) with a carrier-carrier dimer as a control.
Cells were treated for 10-20 minutes in the absence or presence of peptide followed by an additional incubation with or without 1 nM phorbol 12-myristate 13-acetate (PMA) for 10 or 20 minutes. Alternatively, cells were incubated for 10 minutes with 100 nM PMA (positive control) or in the absence of PMA.
Measurements of cardiac myocyte contraction rate were carried out essentially as previously described (Johnson, J. A., et al., J. Biol. Chem. 271:24962-24966, (1996). In brief, cardiomyocytes cultured on 35 mm plates were placed in a temperature-regulation apparatus at 37° C. (Medical Systems Corp.) and positioned on the stage of an inverted microscope (Carl Zeiss Inc.). The contraction rates of four cells in one microscopic field were determined every 2 minutes for 15 seconds each. The basal contraction rate (˜300 beats/minute) was stable over many hours.
Peptide SEQ ID Nos:3, 55 and 79 were introduced into cardiac myocyte cell cultures prepared from newborn rats by transient permeabilization, with sham permeabilization as control, or as carrier-peptide conjugates with a carrier-carrier dimer as control. The cells were treated for 10-20 minutes in the absence or presence of peptide followed by an additional incubation with or without phorbol 12-myristate 13-acetate (PMA) for 10 or 20 minutes. Alternatively, cells were incubated for 10 minutes with 100 nM PMA (positive control) or in the absence of PMA. The effect of the peptide and/or PMA was determined by measuring the contraction rate of the myocytes, as described in Example 1B.

[2] = system: neonatal rat cardiac myocytes; experiment: Cardiac myocyte contraction rate measurement; conditions: 40 minutes after PMA addition, n=4, p<0.05; PMA alone versus with N-ΨεRACK
rat cardiac myocytes = experiment: Simulated ischemia, cell damage by trypan blue exclusion; conditions: for effect on ΨεRACK-induced protection from ischemic damage: in combination with ΨεRACK; for effect on response to ischemia: peptide alone before simulated ischemia
Description: Cardiac myocytes were isolated from adult male rats as previously described (Chen et al., Proc. Natl. Acad. Sci., 96(22):12784 (1999)). Myocytes in incubation buffer were treated with a peptide or combination of peptides, prepared as described in Example 1, for 15 minutes. Myocytes were then pelleted at 1000 rpm for 1 minute in a degassed incubation buffer saturated with nitrogen and incubated at 37° C. for 3 hours to simulate ischemia. Cell damage was assessed after the 3 hours by trypan blue exclusion and percent cell with damage was determined as previously described (Chen et al., Proc. Natl. Acad. Sci., 96(22):12784 (1999)).

Molecule | decrease in contraction rate induced by 10 nM PMA [2] [%] | effect on ΨεRACK-induced protection from ischemic damage (rat cardiac myocytes) | effect on ΨεRACK effect on contraction (negative chronotropy) [1] | effect on response to ischemia (rat cardiac myocytes) | agonistic effect on contraction rate of cardiac myocytes ([1]; peptide alone) | effect on the decrease in contraction rate induced by PMA [1] | further results
CCCCCCCCCCCCCC(=O)O[C@@H]1[C@@H](C)[C@@]2(O)[C@@H](C=C(CO)C[C@]3(O)C(=O)C(C)=C[C@@H]23)[C@@H]2C(C)(C)[C@]12OC(C)=O [PMA, phorbol 12-myristate 13-acetate, reference compound] | 47±3 |  |  |  |  |  | decrease from the basal contraction rate ([1]; PMA alone): 11±4%
COc1ccc2c(c[n+](C)c3c4cc5c(cc4ccc23)OCO5)c1OC [chelerythrine, reference compound] |  | reversed | inhibited |  |  |  | 
EAVSLKPT (listed as Homo sapiens) [εV1-2, reference compound] |  | reversed | abolished |  |  |  | 
HAAPIGYD (Alternative pseudo-epsilon RACK peptide) [A-ΨεRACK] |  | did not |  | no effect | not induced |  | 
HDAPIGYD (listed as Homo sapiens) [ΨεRACK, εPKC agonist peptide, εPKC amino acid residues 85-92] |  |  |  |  |  | reduced the decrease in contraction rate | reduction of ischemia-induced cell damage (rat cardiac myocytes; peptide 15 minutes before 3 hours simulated ischemia): 60%; decrease in contraction rate from the basal rate ([1]; peptide alone, 20 minutes after peptide addition): 9±2%; decrease from the basal contraction rate ([1]; ΨεRACK together with PMA): 44±6%
HNAPIGYD (A modification of SEQ ID NO3) [N-ΨεRACK, εPKC antagonist peptide derived from ΨεRACK, D substituted by N] | 24±5 | abolished |  | no effect | no agonistic effect | able to reduce the decrease in contraction rate | decrease in contraction rate ([1]; cells treated with N-ΨεRACK, then ΨεRACK at 15 minutes and 1 nM PMA at 30 minutes): < 10%
